Results as given in patent US9371295B2, “Compounds for use in the treatment of disorders that are ameliorated by inhibition of HDAC” (IRBM—Science Park S.p.A., priority 2012, dated 2016).

Columns and labels:
HDAC1 = molecular target: T1, HDAC1 (Homo sapiens, UniProt Q13547); assay: HDAC1 assay (Fluor-de-Lys fluorescent deacetylase assay); type: biochemical; conditions: read-out: hHDAC IC50
T1 construct: made in house
Description: The HDAC1 assay is used to quantify the histone deacetylase (HDAC) activity. The assay is performed in 384 well microtiter plates by pre-incubating serial dilutions of the compounds with a fixed concentration of HeLa nuclear extract or purified HDAC1 and then adding an acetylated lysine-containing substrate/developer that fluoresces upon deacetylation.
Reagents of the HDAC Fluorescent Activity Assay are purchased from BioMol Research Laboratories (Plymouth Meeting, Pa.) and feature the Fluor-de-Lys™ Substrate/Developer System.
TSA Stock: TSA is provided as a 10 mM stock solution in 100% dimethylsulfoxide (DMSO). […] The final concentration in the assay is 20 uM.
3 uM [final] TSA to this solution increases its ability to stop the reaction.
HDAC1 Working Solution: The HDAC1 enzyme is diluted in assay buffer prior to each use from a fresh aliquot of enzyme. The final concentration in the assay is 1-2 nM.
Compounds: Test compounds are directly transferred from a 100% DMSO solution into assay plates by spotting nanoliters of solutions by an acoustic dispenser (ATS-100, EDC biosystems, US).
HeLa cells transiently transfected with pCDNA3-HDAC1-FLAG are grown to 80% confluence on 10 cm culture dishes in DMEM, 10% Fetal bovine serum supplemented with antibiotics and glutamine. Cells are washed with 10 ml cold PBS and scraped into 2 ml of PBS. Cells are centrifuged for 5 minutes at 800×g at 4° C., washed with 30 ml PBS and resuspended in 10 ml PBS, counted, re-centrifuged and frozen at −80° C.
The frozen cell pellet is re-suspended in 1 ml of hypotonic lysis buffer (LB: 20 mM Hepes pH7.9, 0.25 mM EDTA, 10% glycerol) containing COMPLETE protease inhibitor and incubated on ice for 15 minutes, followed by homogenization on a 2-ml DounceB homogenizer (25 strokes). 150 mM KCl and 0.5% NP-40 are added to the homogenate and the solution is sonicated twice for 30 seconds (output5/6, duty cycle 90) and incubated for 1 hour at 4° C. After a 30 minutes centrifugation at 12000 rpm and 4° C. the supernatant (soluble extract) is collected and protein concentration is determined using the BIORAD assay.
Anti-FLAG M2 affinity resin (Sigma) is washed three times with TBS and twice with LB. 10 μl of the LB-washed resin/mg of protein (2-3 ug of Flagged-HDAC1) are added to the soluble extract (1 mL) and incubated overnight at 4° C. with gentle mixing. The resin is then collected by centrifugation, washed once with LB, twice with LB+0.1% NP40 and twice with elution buffer (50 mM Hepes pH 7.4, 5% glycerol, 100 mM KCl, 0.01% Triton X-100).
The concentration of purified HDAC is determined by Western blot analysis.

HDAC in Hela cells = assay: HDAC Hela Cell Based assay
[1] = system: human γ-globin promoter (EGFP reporter) in K562 cells; assay: HbF activation assay on K562 (EGFP/RFP reporter model system for screening of inducers of fetal hemoglobin); type: cell-based; conditions: 60 hours
Excerpt: In order to test several compounds, a model system was produced based on previous findings present in the literature. The K562 erythroid-like cell lines, isolated and characterized by Lozzio & Lozzio (Blood, 45(3), pp 321-334) from a patient with chronic myelogenous leukemia in blast crisis, have been extensively employed as a useful in vitro model to study the molecular mechanism(s) regulating the expression of embryonic and fetal human globin genes, as well as for screening of new differentiation-inducing compounds. A stable cell line where reporter genes encoding green EGFP and far-red fluorescent protein red-FP are placed under the control of the human γ-globin or β-globin promoters respectively was used (see Vadolas et al, Hum. Mol. Genet. 2004, 13, 2, 223-233 for details). The modified 3-cluster also contains the upstream regulatory region called LCR. This cell line grows in suspension at 37° C. and 5% CO2 in humidified atmosphere in the following medium: DMEM, 10% foetal bovine serum, glutamine and antibiotics (penicillin and streptomycin);
The assay procedures is as follows: • Single concentration compounds or serially diluted samples are transferred to an empty assay plates by a spotter (ATS-100, EDC Biosystems, USA) in order to have a final concentration of DMSO of 0.25% in 50 μL of cell culture. Source plats contains compounds dissolved in 100% DMSO • Black, transparent bottom, 384 wells, tissue culture treated plates are used as assay plates. • Assay plates containing spotted compounds are filled with a suspension of cell in the described assay medium. The final cell concentration is of 1000 cells per well. • Cells are incubated in humidified atmosphere, 37° C.-5% CO2, for 60 hours • Cell nuclei are stained by adding 10 ul (6 μM; 1 μM final) Hoechst 33342 (Life Technologies, USA) • The cell associated intensity is read by a plate based cytometer (ACUMEN explorer, TTP Labtech, UK) • The nuclei count is used to assess the cell proliferation/death and to normalize the total EGFP/RFP intensity. HbF Activation Assay in Human Cell Line K562
The compounds of the invention were tested in the HbF activation assay on K562, as model system for screening of potential inducers of fetal hemoglobin.

T1 sequence (Q13547 whole entry): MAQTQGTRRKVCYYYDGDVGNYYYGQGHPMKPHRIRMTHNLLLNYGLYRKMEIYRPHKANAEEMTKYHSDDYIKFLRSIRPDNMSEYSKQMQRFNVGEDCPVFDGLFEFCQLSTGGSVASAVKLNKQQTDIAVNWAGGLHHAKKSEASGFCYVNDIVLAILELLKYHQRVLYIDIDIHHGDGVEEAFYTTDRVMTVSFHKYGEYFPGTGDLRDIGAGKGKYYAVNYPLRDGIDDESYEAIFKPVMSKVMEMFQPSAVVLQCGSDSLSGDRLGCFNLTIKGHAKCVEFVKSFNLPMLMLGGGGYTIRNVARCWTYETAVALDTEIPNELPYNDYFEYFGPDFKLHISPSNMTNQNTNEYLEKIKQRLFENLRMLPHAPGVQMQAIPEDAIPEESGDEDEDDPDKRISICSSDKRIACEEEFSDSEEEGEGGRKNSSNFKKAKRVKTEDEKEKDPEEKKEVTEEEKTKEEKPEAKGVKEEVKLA

Row | SMILES | IC50 (HDAC1) [nM] | IC50 (HDAC in Hela cells) [nM] | EC50 [1] [nM]
1 | CCC(=O)CCCCC[C@H](NC(=O)c1nnc(C)o1)c1ncc(-c2cc3ccccc3nc2OC)o1 [Compound 90, (S)-N-(1-(5-(2-methoxyquinolin-3-yl)oxazol-2-yl)-7-oxononyl)-5-methyl-1,3,4-oxadiazole-2-carboxamide] | < 100 | 100 to 1000 | > 1000
2 | CCC(=O)CCCCC[C@H](NC(=O)C1(N(C)C)CCCC1)c1ncc(-c2cc3ccccc3nc2OC)o1 [Compound 105, (S)-1-(dimethylamino)-N-(1-(5-(2-methoxyquinolin-3-yl)oxazol-2-yl)-7-oxononyl)cyclopentanecarboxamide] | < 100 | < 100 | 100 to 1000
3 | CCC(=O)CCCCC[C@H](NC(=O)c1cc(CN2CCCCC2)ns1)c1ncc(-c2cc3ccccc3nc2OC)o1 [Compound 94, (S)-N-(1-(5-(2-methoxyquinolin-3-yl)oxazol-2-yl)-7-oxononyl)-3-(piperidin-1-ylmethyl)isothiazole-5-carboxamide] | < 100 | 100 to 1000 | > 1000
4 | CCC(=O)CCCCC[C@H](NC(=O)[C@@H](CC(F)(F)F)N(C)C)c1ncc(-c2cc3ccccc3nc2OC)o1 [Compound 64, (R)-2-(dimethylamino)-4,4,4-trifluoro-N-((S)-1-(5-(2-methoxyquinolin-3-yl)oxazol-2-yl)-7-oxononyl)butanamide] | < 100 | > 1000 | > 1000
5 | CCC(=O)CCCCC[C@H](NC(=O)Cc1nonc1C)c1ncc(-c2cc3ccccc3nc2OC)o1 [Compound 77, (S)-N-(1-(5-(2-methoxyquinolin-3-yl)oxazol-2-yl)-7-oxononyl)-2-(4-methyl-1,2,5-oxadiazol-3-yl)acetamide] | < 100 | 100 to 1000 | > 1000
6 | CCC(=O)CCCCC[C@H](NC(=O)CCN(C)C)c1ncc(-c2cc3ccccc3nc2OC)o1 [Compound 38, (S)-3-(dimethylamino)-N-(1-(5-(2-methoxyquinolin-3-yl)oxazol-2-yl)-7-oxononyl)propanamide] | < 100 | < 100 | 100 to 1000
7 | CCC(=O)CCCCC[C@H](NC(=O)C(=O)N(C)C)c1nnc(-c2cc3ccccc3nc2OC)o1 [Compound 45, (S)-N1-(1-(5-(2-methoxyquinolin-3-yl)-1,3,4-oxadiazol-2-yl)-7-oxononyl)-N2,N2-dimethyloxalamide] | < 100 | 100 to 1000 | > 1000
8 | CCC(=O)CCCCC[C@H](NC(=O)[C@H](CC(F)(F)F)N(C)C)c1ncc(-c2cc3ccccc3nc2OC)o1 [Compound 63, (S)-2-(dimethylamino)-4,4,4-trifluoro-N-((S)-1-(5-(2-methoxyquinolin-3-yl)oxazol-2-yl)-7-oxononyl)butanamide] | 100 to 1000 | > 1000 | > 1000
9 | CCC(=O)CCCCC[C@H](NC(=O)Cn1cnc2ccccc21)c1ncc(-c2cc3ccccc3nc2OC)o1 [Compound 97, (S)-2-(1H-benzo[d]imidazol-1-yl)-N-(1-(5-(2-methoxyquinolin-3-yl)oxazol-2-yl)-7-oxononyl)acetamide] | < 100 | 100 to 1000 | > 1000

Now from value to compound:

Row | IC50 (HDAC1) [nM] | IC50 (HDAC in Hela cells) [nM] | EC50 [1] [nM] | SMILES
10 | < 100 | 100 to 1000 | > 1000 | CCC(=O)CCCCC[C@H](NC(=O)C1CN(C(C)=O)C1)c1ncc(-c2ccc(-n3cccn3)cc2)o1 [Compound 62, (S)-N-(1-(5-(4-(1H-pyrazol-1-yl)phenyl)oxazol-2-yl)-7-oxononyl)-1-acetylazetidine-3-carboxamide]
11 | < 100 | < 100 | 100 to 1000 | CCC(=O)CCCCC[C@H](NC(=O)C1CCN(C)CC1)c1ncc(-c2cc3ccccc3nc2OC)o1 [Compound 39]
12 | < 100 | < 100 | 100 to 1000 | CCC(=O)CCCCC[C@H](NC(=O)C1CCCN(C)C1)c1ncc(-c2cc3ccccc3nc2OC)o1 (stereo partly drawn) [Compound 104, N-((S)-1-(5-(2-methoxyquinolin-3-yl)oxazol-2-yl)-7-oxononyl)-1-methylpiperidine-3-carboxamide]
13 | < 100 | 100 to 1000 | > 1000 | CCC(=O)CCCCC[C@H](NC(=O)c1ccn(C)n1)c1ncc(-c2cc3ccccc3nc2OC)o1 [Compound 98, (S)-N-(1-(5-(2-methoxyquinolin-3-yl)oxazol-2-yl)-7-oxononyl)-1-methyl-1H-pyrazole-3-carboxamide]
14 | < 100 | 100 to 1000 | > 1000 | CCC(=O)CCCCC[C@H](NC(=O)c1csnn1)c1ncc(-c2cc3ccccc3nc2OC)o1 [Compound 99, (S)-N-(1-(5-(2-methoxyquinolin-3-yl)oxazol-2-yl)-7-oxononyl)-1,2,3-thiadiazole-4-carboxamide]
15 | < 100 | 100 to 1000 | > 1000 | CCC(=O)CCCCC[C@H](NC(=O)C1CN(C)C1)c1ncc(-c2ccc(-c3ccnn3C)cc2)o1 [Compound 54, (S)-1-methyl-N-(1-(5-(4-(1-methyl-1H-pyrazol-5-yl)phenyl)oxazol-2-yl)-7-oxononyl)azetidine-3-carboxamide]
16 | < 100 | > 1000 | > 1000 | CCC(=O)CCCCC[C@H](NC(=O)Cc1c(C)[nH]c2ccc(OC)cc12)c1ncc(-c2ccccc2)o1 [Compound 4, (S)-2-(5-methoxy-2-methyl-1H-indol-3-yl)-N-(7-oxo-1-(5-phenyloxazol-2-yl)nonyl)acetamide]
17 | < 100 | 100 to 1000 | > 1000 | CCC(=O)CCCCC[C@H](NC(=O)C1CN(C)C1)c1ncc(-c2cccc3cccnc23)o1 [Compound 70, (S)-1-methyl-N-(7-oxo-1-(5-(quinolin-8-yl)oxazol-2-yl)nonyl)azetidine-3-carboxamide]
18 | < 100 | > 1000 | > 1000 | CCC(=O)CCCCC[C@H](NC(=O)C1CN(C)C1)c1ncc(-c2ccccc2)o1 [Compound 32, (S)-1-methyl-N-(7-oxo-1-(5-phenyloxazol-2-yl)nonyl)azetidine-3-carboxamide]
19 | < 100 | > 1000 | > 1000 | CCC(=O)CCCCC[C@H](NC(=O)C(C)(C)N(C)C)c1ncc(-c2ccccc2)o1 [Compound 9, (S)-2-(dimethylamino)-2-methyl-N-(7-oxo-1-(5-phenyloxazol-2-yl)nonyl)propanamide]
20 | < 100 | 100 to 1000 | > 1000 | CCC(=O)CCCCC[C@H](NC(=O)C1CN(Cc2ccccc2)C1)c1ncc(-c2cc3ccccc3nc2OC)o1 [Compound 56, (S)-1-benzyl-N-(1-(5-(2-methoxyquinolin-3-yl)oxazol-2-yl)-7-oxononyl)azetidine-3-carboxamide]
